Data set [1] in a line: Rodent pharmacokinetics (rat PK). The class given is in vivo. The conditions noted are these: po, dosed intravenously or orally by gavage, plasma, read-out: F % (bioavailability). An outline of the steps: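 F % is reported as a letter code: A for ≥5%, B for ≤5%. It was derived from rat plasma profiles after intravenous or oral gavage dosing, with jugular vein sampling from predose to 24 h (5 min point for IV only).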

Another data set addresses T1, IRAK4 (Homo sapiens, UniProt Q9NWZ3).
T1 construct: endogenous in cells; host or cells: OCI-LY10
T1 sequence (Q9NWZ3 1-460): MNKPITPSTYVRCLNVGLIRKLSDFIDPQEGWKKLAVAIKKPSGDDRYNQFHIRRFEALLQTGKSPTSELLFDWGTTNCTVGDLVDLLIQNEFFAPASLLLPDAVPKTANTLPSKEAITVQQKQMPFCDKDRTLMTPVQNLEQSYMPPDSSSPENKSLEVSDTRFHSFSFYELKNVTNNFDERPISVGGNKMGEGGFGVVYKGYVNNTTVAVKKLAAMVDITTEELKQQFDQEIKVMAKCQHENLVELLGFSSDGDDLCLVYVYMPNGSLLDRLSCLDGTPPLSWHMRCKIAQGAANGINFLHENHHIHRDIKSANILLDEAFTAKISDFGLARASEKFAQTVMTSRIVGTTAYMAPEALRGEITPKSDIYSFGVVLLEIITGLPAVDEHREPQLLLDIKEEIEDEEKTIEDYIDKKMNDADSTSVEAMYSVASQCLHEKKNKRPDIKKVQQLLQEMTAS
In words: IRAK4 MSD degradation in OCI-LY10. The class given is cell-based. The conditions noted are these: OCI-LY10 cells, 24 hrs, Meso Scale Discovery. An outline of the steps:
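Remaining IRAK4 protein measured by Meso Scale Discovery electrochemiluminescence sandwich assay on lysates of OCI-LY10 cells. Cells were exposed for 4 to 24 hours (37° C., 5% CO2) to eight 1:3-diluted concentrations starting at 1 to 10 μM. DC50 derived by three-parameter logistic fitting.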

34 molecules from patent publication US20250059164A1, “IRAK DEGRADERS AND USES THEREOF” (Kymera Therapeutics, Inc., priority 2023, published 2025) can be followed below.

For orientation: bioavailability means the share of a dose that reaches the circulation, judged against a reference dose that is usually intravenous. Usually DC50 stands for the concentration giving 50% degradation. A higher DC50 goes with a less potent degrader. `Cn1c(=O)n(C2CCC(=O)NC2=O)c2cccc([C@@H]3CCN(C[C@H]4CC[C@H](n5cc6cc(NC(=O)c7cncc(C(F)(F)F)n7)c(C(C)(C)O)cc6n5)CC4)C[C@H]3F)c21` (some centres unmarked) [I-171]: the bioavailability in data set [1] is ≤ 5%. The 50% degradation concentration (DC50) on IRAK4 is < 10 nM.
Turning to `Cn1c(=O)n(C2CCC(=O)NC2=O)c2cccc([C@@H]3CCN(C[C@H]4CC[C@H](n5cc6cc(NC(=O)c7cncc(C(F)(F)F)n7)c(C#N)cc6n5)CC4)C[C@H]3F)c21` (some centres unmarked) [I-172], in data set [1], the bioavailability was ≤ 5%. The half-maximal degradation concentration (DC50) on IRAK4 was < 10 nM.
In the same order, the values of `Cn1c(=O)n(C2CCC(=O)NC2=O)c2cccc([C@@H]3CCN(C[C@H]4CC[C@H](c5nc6cc(C(C)(C)O)c(NC(=O)c7cncc(C(F)(F)F)n7)cc6s5)CC4)C[C@H]3F)c21` (some centres unmarked) [I-173] are ≤ 5% and < 10 nM.
For `Cn1c(=O)n(C2CCC(=O)NC2=O)c2cccc([C@@H]3CCN(C[C@H]4CC[C@H](n5cc6cc(NC(=O)c7cc(C(F)(F)F)cnn7)ccc6n5)CC4)C[C@H]3F)c21` (some centres unmarked) [I-175], the bioavailability in data set [1] is ≤ 5%. Moreover, the DC50 at IRAK4 was > 200 nM.
`Cn1c(=O)n(C2CCC(=O)NC2=O)c2cccc(C#CCN3CCN(C[C@H]4CC[C@H](n5cc(NC(=O)c6cnn7ccc(N8C[C@H]9C[C@@H]8CO9)nc67)c(C(F)F)n5)CC4)C(=O)C3)c21` (some centres unmarked) [I-185]: in data set [1], the bioavailability was ≤ 5%. For the same molecule, the 50% degradation concentration (DC50) on IRAK4 is < 10 nM.
Take `Cn1c(=O)n(C2CCC(=O)NC2=O)c2cccc(C#CCN3CCN(C[C@H]4CC[C@H](n5cc(NC(=O)c6cnn7ccc(N8C[C@H]9C[C@@H]8CO9)nc67)c(C(F)F)n5)CC4)CC3=O)c21` (some centres unmarked) [I-186]: in data set [1], the bioavailability was ≤ 5%. The half-maximal degradation concentration (DC50) on IRAK4 is < 10 nM.
For the molecule `Cn1c(=O)n(C2CCC(=O)NC2=O)c2cccc([C@@H]3CCN(C[C@H]4CC[C@H](n5cc6cc(NC(=O)c7cncc(C#N)c7)c(C(C)(C)O)cc6n5)CC4)C[C@H]3F)c21` (some centres unmarked) [I-188], the bioavailability in data set [1] is ≤ 5%. In addition, the DC50 at IRAK4 is < 10 nM.
For the molecule `COc1cc2nn([C@H]3CC[C@H](CN4CC[C@@H](c5cccc6c5n(C)c(=O)n6C5CCC(=O)NC5=O)[C@H](F)C4)CC3)cc2cc1NC(=O)c1cncc(C(F)(F)F)n1` (some centres unmarked) [I-189], in data set [1], the bioavailability was ≤ 5%. Besides, the DC50 at IRAK4 is < 10 nM.
In the same order, the values of `Cn1c(=O)n(C2CCC(=O)NC2=O)c2cccc([C@@H]3CCN(C[C@H]4CC[C@H](n5cc6cc(NC(=O)c7ccnc(C(F)(F)F)n7)ccc6n5)CC4)C[C@H]3F)c21` (some centres unmarked) [I-190] are ≤ 5% and > 200 nM.
Consider `Cn1c(=O)n(C2CCC(=O)NC2=O)c2cccc(N3CCC(F)(CN4CCC(c5nc6cc(C(C)(C)O)c(NC(=O)c7cccc(C(F)(F)F)n7)cc6s5)CC4)CC3)c21` (centres unmarked) [I-191], for which the bioavailability in data set [1] was ≤ 5%. Further, the DC50 at IRAK4 lay within 10 to 100 nM.
Take `Cn1c(=O)n(C2CCC(=O)NC2=O)c2cccc([C@@H]3CCN(C[C@H]4CC[C@H](c5cn6cc(NC(=O)c7cncc(C(F)(F)F)n7)ccc6n5)CC4)C[C@H]3F)c21` (some centres unmarked) [I-193]: the bioavailability in data set [1] was ≤ 5%. At IRAK4, the DC50 is < 10 nM.
As to `Cn1c(=O)n(C2CCC(=O)NC2=O)c2cccc([C@@H]3CCN(C[C@H]4CC[C@H](c5cc6cc(NC(=O)c7cncc(C(F)(F)F)n7)ccn6n5)CC4)C[C@H]3F)c21` (some centres unmarked) [I-194], the bioavailability in data set [1] was ≥ 5%. Besides, the DC50 on IRAK4 is < 10 nM.
Consider `Cn1c(=O)n(C2CCC(=O)NC2=O)c2cccc([C@@H]3CCN(C[C@H]4CC[C@H](n5cc6cc(NC(=O)c7nccc(C(F)(F)F)n7)ccc6n5)CC4)C[C@H]3F)c21` (some centres unmarked) [I-195], for which, in data set [1], the bioavailability was ≤ 5%. At IRAK4, the half-maximal degradation concentration (DC50) was > 200 nM.
For the molecule `Cn1c(=O)n(C2CCC(=O)NC2=O)c2cccc([C@@H]3CCN(C[C@H]4CC[C@H](n5cc6cc(NC(=O)c7cc(C(F)(F)F)ncn7)ccc6n5)CC4)C[C@H]3F)c21` (some centres unmarked) [I-196], in data set [1], the bioavailability is ≤ 5%. The DC50 at IRAK4 is > 200 nM.
In the same order, the values of `Cn1c(=O)n(C2CCC(=O)NC2=O)c2cccc(N3CCC(F)(CN4CCC(c5nc6cc(C(C)(C)O)c(NC(=O)c7cccc(C(F)(F)F)n7)cc6o5)CC4)CC3)c21` (centres unmarked) [I-197] are ≤ 5% and > 200 nM.
Consider `COc1cc2nn([C@H]3CC[C@H](CN4CC[C@@H](c5cccc6c5n(C)c(=O)n6C5CCC(=O)NC5=O)[C@H](F)C4)CC3)cc2cc1C(=O)Nc1cccc(C(F)(F)F)n1` (some centres unmarked) [I-200], for which the bioavailability in data set [1] was ≤ 5%. Moreover, on IRAK4, the 50% degradation concentration (DC50) is < 10 nM.
For `Cn1c(=O)n(C2CCC(=O)NC2=O)c2cccc([C@@H]3CCN(C[C@H]4CC[C@H](n5cc6cc(C(=O)Nc7cccc(C(F)(F)F)n7)ccc6n5)CC4)C[C@H]3F)c21` (some centres unmarked) [I-201], in that order: ≤ 5% and < 10 nM.
Take `Cn1c(=O)n(C2CCC(=O)NC2=O)c2cccc([C@@H]3CCN(C[C@H]4CC[C@H](n5cc6cc(NC(=O)c7cncc(C(F)(F)F)n7)c(Cl)cc6n5)CC4)C[C@H]3F)c21` (some centres unmarked) [I-210]: the bioavailability in data set [1] is ≤ 5%. Further, on IRAK4, the DC50 is < 10 nM.
In the case of `Cn1c(=O)n(C2CCC(=O)NC2=O)c2cccc([C@@H]3CCN(C[C@H]4CC[C@H](n5cc6cc(NC(=O)c7cncc(C(F)(F)F)n7)c(C(F)F)cc6n5)CC4)C[C@H]3F)c21` (some centres unmarked) [I-214], the bioavailability in data set [1] is ≤ 5%. In addition, the DC50 at IRAK4 was < 10 nM.
Consider `COc1cc2nn([C@H]3CC[C@H](CN4CCC5(CCN(c6cccc7c6n(C)c(=O)n7C6CCC(=O)NC6=O)CC5)C(F)(F)C4)CC3)cc2cc1C(=O)Nc1cncc(C#N)c1` (some centres unmarked) [I-228], for which the bioavailability in data set [1] was ≤ 5%. Besides, the half-maximal degradation concentration (DC50) on IRAK4 is < 10 nM.
As to `COc1cc2nn([C@H]3CC[C@H](CN4CCC5(CN(c6cccc7c6n(C)c(=O)n7C6CCC(=O)NC6=O)C5)C(F)(F)C4)CC3)cc2cc1NC(=O)c1cncc(C)c1` (some centres unmarked) [I-243], in data set [1], the bioavailability was ≤ 5%. Moreover, the 50% degradation concentration (DC50) on IRAK4 was < 10 nM.
In the case of `Cn1c(=O)n(C2CCC(=O)NC2=O)c2cccc([C@@H]3CCN(C[C@H]4CC[C@H](n5cc6cc(NC(=O)c7cccc(C(F)(F)F)c7)ncc6n5)CC4)C[C@H]3F)c21` (some centres unmarked) [I-244], the bioavailability in data set [1] was ≤ 5%. In addition, the DC50 at IRAK4 was < 10 nM.
Consider `Cn1c(=O)n(C2CCC(=O)NC2=O)c2cccc([C@@H]3CCN(C[C@H]4CC[C@H](n5cc6cc(NC(=O)c7cccc(C(F)(F)F)c7)ccc6n5)CC4)C[C@H]3F)c21` (some centres unmarked) [I-245], for which the bioavailability in data set [1] is ≤ 5%. In addition, the half-maximal degradation concentration (DC50) on IRAK4 is < 10 nM.
In the same order, the values of `COc1cc2nn([C@H]3CC[C@H](CN4CC[C@@H](c5cccc6c5n(C)c(=O)n6C5CCC(=O)NC5=O)[C@H](F)C4)CC3)cc2cc1NC(=O)c1cccc(C(F)(F)F)c1` (some centres unmarked) [I-246] are ≤ 5% and < 10 nM.
In the same order, the values of `COc1cc2nn([C@H]3CC[C@H](CN4CCC5(CN(c6cccc7c6n(C)c(=O)n7C6CCC(=O)NC6=O)C5)C(F)(F)C4)CC3)cc2cc1NC(=O)c1cncc(C#N)c1` (some centres unmarked) [I-247] are ≤ 5% and < 10 nM.
Take `COc1cc2nn([C@H]3CC[C@H](CN4CCC5(CN(c6cccc7c6n(C)c(=O)n7C6CCC(=O)NC6=O)C5)C(F)(F)C4)CC3)cc2cc1NC(=O)c1cncc(F)c1` (some centres unmarked) [I-248]: the bioavailability in data set [1] was ≤ 5%. For the same molecule, the DC50 on IRAK4 was < 10 nM.
As to `Cn1c(=O)n(C2CCC(=O)NC2=O)c2cccc([C@@H]3CCN(C[C@H]4CC[C@H](n5cc6cc(NC(=O)c7cccc(C#N)c7)ccc6n5)CC4)C[C@H]3F)c21` (some centres unmarked) [I-249], the bioavailability in data set [1] is ≤ 5%. Besides, the DC50 on IRAK4 was < 10 nM.
In the case of `COc1cc2nn([C@H]3CC[C@H](CN4CC[C@@H](c5cccc6c5n(C)c(=O)n6C5CCC(=O)NC5=O)[C@H](F)C4)CC3)cc2cc1NC(=O)c1cccc(C#N)c1` (some centres unmarked) [I-250], in data set [1], the bioavailability is ≤ 5%. Further, at IRAK4, the DC50 was < 10 nM.
With `COc1cc2nn([C@H]3CC[C@H](CN4CC[C@@H](c5cccc6c5n(C)c(=O)n6C5CCC(=O)NC5=O)[C@H](F)C4)CC3)cc2cc1NC(=O)c1cncc(C(F)(F)F)c1` (some centres unmarked) [I-252], in data set [1], the bioavailability was ≤ 5%. The DC50 on IRAK4 is < 10 nM.
With `Cn1c(=O)n(C2CCC(=O)NC2=O)c2cccc(N3CC4(CCN(C[C@H]5CC[C@H](n6cc7cc(NC(=O)c8cccc(C(F)(F)F)c8)ncc7n6)CC5)CC4(F)F)C3)c21` (some centres unmarked) [I-253], the bioavailability in data set [1] was ≤ 5%. For the same molecule, the DC50 at IRAK4 was < 10 nM.
On to `Cn1c(=O)n(C2CCC(=O)NC2=O)c2cccc(N3CC4(CCN(C[C@H]5CC[C@H](n6cc7cc(NC(=O)c8cccc(C(F)(F)F)c8)ccc7n6)CC5)CC4(F)F)C3)c21` (some centres unmarked) [I-254], for which the bioavailability in data set [1] was ≤ 5%. The DC50 at IRAK4 is < 10 nM.
As to `COc1cc2nn([C@H]3CC[C@H](CN4CCC5(CN(c6cccc7c6n(C)c(=O)n7C6CCC(=O)NC6=O)C5)C(F)(F)C4)CC3)cc2cc1NC(=O)c1cccc(C(F)(F)F)c1` (some centres unmarked) [I-255], in data set [1], the bioavailability was ≤ 5%. Besides, the DC50 on IRAK4 is < 10 nM.
On to `Cn1c(=O)n(C2CCC(=O)NC2=O)c2cccc(N3CC(OC[C@H]4CC[C@H](n5cc(NC(=O)c6cnn7ccc(N8C[C@H]9C[C@@H]8CO9)nc67)c(C(F)F)n5)CC4)C3)c21` (some centres unmarked) [I-256], for which, in data set [1], the bioavailability was ≤ 5%. Also, the DC50 at IRAK4 is > 200 nM.
For `COc1cc2nn([C@H]3CC[C@H](CN4CCC5(CCN(c6cccc7c6n(C)c(=O)n7C6CCC(=O)NC6=O)CC5)C(F)(F)C4)CC3)cc2cc1NC(=O)c1cncc(C)c1` (some centres unmarked) [I-257], the bioavailability in data set [1] was ≤ 5%. The half-maximal degradation concentration (DC50) at IRAK4 was < 10 nM.
